Data as given in patent US6723837B1, “Nucleic acid molecule and encoded protein associated with sterol synthesis and metabolism” (Monsanto Technology LLC, priority 1999, dated 2004).

Tested on: wild type yeast LPY9
Assay: RNA abundance on yeast ORF array after ketoconazole treatment vs control without ketoconazole
Type: cell-based
Conditions: LPY9, 2 hr, vs untreated LPY9
Procedure: The yeast strain LPY9 (MATa, leu2, Ura3, his3) is grown overnight and inoculated into SD+ hul (histidine, uracil, leucine) media. Aliquots of the culture are treated with ketoconazole (an inhibitor of C-14α demethylase (P45014DM) enzyme) at 10 ug/ml, 50 ug/ml, and 100 ug/ml, corresponding to 10 ppm, 50 ppm, and 100 ppm, respectively. A sample of each is collected at 2, 4, and 6 hours after treatment. Control samples treated with DMSO (dimethyl sulfoxide-solvent for ketoconazole) but not with ketoconazole are also collected. Total RNA from each sample is collected by conventional methods, such as a Zirconium/Silica bead binding and extraction method. The sequence content of each sample is analyzed and compared by hybridizing each of them to a number of yeast ORF sequences immobilized on a Nylon membrane in an array format.
Table 2, below, lists the RNAs in each sample whose abundance is effected by ketoconazole treatment or whose abundance differs between wild type and the double mutant strain. The table also lists the corresponding gene or sequence identifier for those RNAs. The RNAs are ranked by the ratio of either ketocanozole vs. control or mutant vs. control, using the ratio of 50 ppm ketocanozole/control as a basis for comparison.

## CC(=O)N1CCN(c2ccc(OCC3COC(Cn4ccnc4)(c4ccc(Cl)cc4Cl)O3)cc2)CC1 (centres unmarked) [ketoconazole]
50 micro gram/ml
  K-50/CK expression level ratio: YAL001C (TFC3): 0.4743
  K-50/CK expression level ratio: YAL013W (DEP1): 5.546
  K-50/CK expression level ratio: YAL048C: 2.138
  K-50/CK expression level ratio: YAR044W (OSH1): 3.625
  K-50/CK expression level ratio: YBL005W (PDR3): 4.145
  K-50/CK expression level ratio: YBL008W (HIR1): 2.828
  K-50/CK expression level ratio: YBR119W (MUD1): 2.405
  K-50/CK expression level ratio: YBR289W (SNF5): 2.688
  K-50/CK expression level ratio: YCL037C (SRO9): 2.786
  K-50/CK expression level ratio: YCR048W (ARE1): 6.104
  K-50/CK expression level ratio: YCR084C (TUP1): 2.922
  K-50/CK expression level ratio: YDL088C (ASM4): 4.176
  K-50/CK expression level ratio: YDR052C (DBF4): 2.404
  K-50/CK expression level ratio: YDR088C (SLU7): 2.734
  K-50/CK expression level ratio: YDR211W (GCD6): 2.484
  K-50/CK expression level ratio: YDR213W: 32.14
  K-50/CK expression level ratio: YDR253C (MET32): 0.3397
  K-50/CK expression level ratio: YDR264C (AKR1): 2.198
  K-50/CK expression level ratio: YDR389W (SAC7): 4.561
  K-50/CK expression level ratio: YDR422C (SIP1): 2.187
  K-50/CK expression level ratio: YFL054C: 0.4794
  K-50/CK expression level ratio: YFR009W (GCN20): 2.486
  K-50/CK expression level ratio: YFR034C (PHO4): 11.22
  K-50/CK expression level ratio: YGL001C: 2.821
  K-50/CK expression level ratio: YGL014W: 3.229
  K-50/CK expression level ratio: YGL071W (RCS1): 3.696
  K-50/CK expression level ratio: YGL112C (TAF60): 2.077
  K-50/CK expression level ratio: YGL192W (IME4): 3.17
  K-50/CK expression level ratio: YGR177C (ATF2): 11.83
  K-50/CK expression level ratio: YGR270W (YTA7): 2.406
  K-50/CK expression level ratio: YHL027W (RIM101): 2.103
  K-50/CK expression level ratio: YIL084C (SDS3): 5.543
  K-50/CK expression level ratio: YIR017C (MET28): 0.3775
  K-50/CK expression level ratio: YJL127C (SPT10): 7.839
  K-50/CK expression level ratio: YJR017C (ESS1): 3.559
  K-50/CK expression level ratio: YJR019C (TES1): 2.83
  K-50/CK expression level ratio: YKR034W (DAL80): 5.044
  K-50/CK expression level ratio: YLR098C (CHA4): 4.756
  K-50/CK expression level ratio: YLR120C (YAP3): 3.623
  K-50/CK expression level ratio: YLR153C (ACS2): 3.379
  K-50/CK expression level ratio: YLR249W (YEF3): 3.145
  K-50/CK expression level ratio: YMR019W (STB4): 3.441
  K-50/CK expression level ratio: YMR037C (MSN2): 6.424
  K-50/CK expression level ratio: YMR047C (NUP116): 3.17
  K-50/CK expression level ratio: YMR080C (NAM7): 2.183
  K-50/CK expression level ratio: YMR146C (TIF34): 0.2248
  K-50/CK expression level ratio: YNR019W (ARE2): 1.791
  K-50/CK expression level ratio: YOL067C (RTG1): 10.03
  K-50/CK expression level ratio: YOR127W (RGA1): 2.532
  K-50/CK expression level ratio: YOR237W (HES1): 1418
  K-50/CK expression level ratio: YOR337W (TEA1): 2.979
  K-50/CK expression level ratio: YPL028W (ERG10): 2.019
  K-50/CK expression level ratio: YPL119C (DBP1): 3.246
  K-50/CK expression level ratio: YPL226W: 2.889
  K-50/CK expression level ratio: YPL237W (SUI3): 2.563
  K-50/CK expression level ratio: YPR080W (TEF1): 2.212
100 micro gram/ml
  K-100/CK expression level ratio: YAL001C (TFC3): 1.192
  K-100/CK expression level ratio: YAL013W (DEP1): 6.425
  K-100/CK expression level ratio: YAL048C: 4.221
  K-100/CK expression level ratio: YAR044W (OSH1): 3.884
  K-100/CK expression level ratio: YBL005W (PDR3): 6.083
  K-100/CK expression level ratio: YBL008W (HIR1): 2.887
  K-100/CK expression level ratio: YBR119W (MUD1): 1.399
  K-100/CK expression level ratio: YBR289W (SNF5): 3.039
  K-100/CK expression level ratio: YCL037C (SRO9): 2.394
  K-100/CK expression level ratio: YCR048W (ARE1): 10.53
  K-100/CK expression level ratio: YCR084C (TUP1): 3.272
  K-100/CK expression level ratio: YDL088C (ASM4): 3.321
  K-100/CK expression level ratio: YDR052C (DBF4): 1.583
  K-100/CK expression level ratio: YDR088C (SLU7): 2.688
  K-100/CK expression level ratio: YDR211W (GCD6): 1.824
  K-100/CK expression level ratio: YDR213W: 58.36
  K-100/CK expression level ratio: YDR253C (MET32): 0.3279
  K-100/CK expression level ratio: YDR264C (AKR1): 2.752
  K-100/CK expression level ratio: YDR389W (SAC7): 4.314
  K-100/CK expression level ratio: YDR422C (SIP1): 2.084
  K-100/CK expression level ratio: YFL054C: 0.6137
  K-100/CK expression level ratio: YFR009W (GCN20): 2.161
  K-100/CK expression level ratio: YFR034C (PHO4): 20.84
  K-100/CK expression level ratio: YGL001C: 1.985
  K-100/CK expression level ratio: YGL014W: 3.638
  K-100/CK expression level ratio: YGL071W (RCS1): 4.531
  K-100/CK expression level ratio: YGL112C (TAF60): 2.189
  K-100/CK expression level ratio: YGL192W (IME4): 6.478
  K-100/CK expression level ratio: YGR177C (ATF2): 12.56
  K-100/CK expression level ratio: YGR270W (YTA7): 1.946
  K-100/CK expression level ratio: YHL027W (RIM101): 2.593
  K-100/CK expression level ratio: YIL084C (SDS3): 6.907
  K-100/CK expression level ratio: YIR017C (MET28): 0.3009
  K-100/CK expression level ratio: YJL127C (SPT10): 10.1
  K-100/CK expression level ratio: YJR017C (ESS1): 3.221
  K-100/CK expression level ratio: YJR019C (TES1): 2.072
  K-100/CK expression level ratio: YKR034W (DAL80): 7.284
  K-100/CK expression level ratio: YLR098C (CHA4): 5.587
  K-100/CK expression level ratio: YLR120C (YAP3): 4.43
  K-100/CK expression level ratio: YLR153C (ACS2): 3.129
  K-100/CK expression level ratio: YLR249W (YEF3): 2.632
  K-100/CK expression level ratio: YMR019W (STB4): 3.398
  K-100/CK expression level ratio: YMR037C (MSN2): 7.661
  K-100/CK expression level ratio: YMR047C (NUP116): 4.774
  K-100/CK expression level ratio: YMR080C (NAM7): 2.171
  K-100/CK expression level ratio: YMR146C (TIF34): 0.7194
  K-100/CK expression level ratio: YNR019W (ARE2): 2.854
  K-100/CK expression level ratio: YOL067C (RTG1): 27.37
  K-100/CK expression level ratio: YOR127W (RGA1): 2.57
  K-100/CK expression level ratio: YOR139C (SFL1): 11.76
  K-100/CK expression level ratio: YOR237W (HES1): 1358
  K-100/CK expression level ratio: YOR337W (TEA1): 4.823
  K-100/CK expression level ratio: YPL028W (ERG10): 1.699
  K-100/CK expression level ratio: YPL119C (DBP1): 2.197
  K-100/CK expression level ratio: YPL226W: 2.556
  K-100/CK expression level ratio: YPL237W (SUI3): 2.548
  K-100/CK expression level ratio: YPR080W (TEF1): 1.859
